In US9119396B2, “Method for promoting plant growth” (SUMITOMO CHEMICAL COMPANY, LIMITED, priority 2011, dated 2015):

System: Rice (cultivar: Nipponbare)
Test: Test Example 1: promotion of root growth in hydroponics of rice
Format: in vivo
Conditions: 1 ppm, 3 days germination + 3 days cultivation, average of 4 or 5 individuals
Procedure: Evaluation Test for Promotion of Root Growth in Hydroponics of Rice Rice (cultivar: Nipponbare) A 1/10,000 volume of each DMSO solution containing each of the present compounds 1 to 4 at 10,000 ppm was added to a Hoagland solution for hydroponics (Hoagland and Amon, California Agricultural Experiment Station 1950 Circular 347 pp. 34) at ¼ concentration to obtain a solution for hydroponics containing each of the present compounds 1 to 4 at 1 ppm. These solutions were used in the treated-group. In a non-treated group, a solution for hydroponics obtained by adding a Hoagland solution for hydroponics at ¼ concentration to a 1/10,000 volume of DMSO was used. The rice seeds were immersed in an aqueous solution of 1% sodium hypochlorite for 10 minutes, followed by 70% ethanol solution to sterilize their surfaces. After that, the seeds were washed with distilled water. The sterilized seeds were immersed in each solution for hydroponics containing the test compound at 1 ppm, and incubated at a temperature of 28° C. for 3 days under dark conditions to stimulate the germination of the seeds. Then, 30 ml of each solution for hydroponics containing the test compound at 1 ppm was dispensed into a plastic tube (20 mm in diameter×113 mm in height) covered with a cardboard on the lateral surface for blocking a light. A float made of a styrene board and a vinyl mesh was placed on the water surface of each solution for hydroponics, and the rice seeds obtained after the stimulation of germination were placed on the float. The seeds were cultivated for 3 days under the conditions of an illuminance of 4,000 lux at the top of the tube, a temperature of 26° C., a humidity of 50%, and a day length of 16 hours. The root length of the rice seedlings obtained after the cultivation was measured by using WinRHIZO system (manufactured by REGENT INSTRUMENTS). The average value of the root length in the treated group was calculated from the measurement values of 4 or 5 individuals. As a result, the root length in the treated group, wherein the plants were treated with the present compound 1, 2, 3 or 4 (at a concentration of 1 ppm in each case), was much longer than that in the non-treated group.

## COC(=O)c1cc2cc(C(F)(F)F)ccc2s1 [compound 1]
  root length of the rice seedlings vs non-treated group: much longer
